The target in data set [1] is cGMP-specific 3',5'-cyclic phosphodiesterase (Homo sapiens, UniProt O76074). Nature of the data set: Phosphodiesterase 5 activity of human corpus cavernosum.
The species named for another data set is Homo sapiens. Nature of the data set: Selectivity for human retinal cone PDE-6 and human corpus cavernosum PDE-5.
Data set [2] is described as follows: Oral bioavailability in rat. Type of data set: ADME, organism-based. The note with it: in vivo.
Data set [3] relates to Canis familiaris. The data set is described as follows: In vivo efficacy in dogs. Type of data set: functional. The note with it: Canis lupus familiaris.
Data set [4] can be described thus: pKa value of the compound. Type of data set: physicochemical.
Data set [5] relates to Canis familiaris. The data set is described as follows: In vivo effect on erectile dysfunction in dogs after intravenous dose. Type of data set: functional. The note with it: Canis lupus familiaris.
Data set [6] has as its system Canis familiaris. Nature of the data set: In vivo efficacy in dogs. Type of data set: functional. The note with it: Canis lupus familiaris.
Data set [7] is described as follows: pKa of the compound. Type of data set: physicochemical.

Regarding `Oc1c2c(nc3ccccc13)C(c1ccc3c(c1)CCO3)N(c1ncccn1)C2` (stereo not drawn), the Ki in data set [1] was 1080 pM. In addition, the Ratio in the data set filed under Homo sapiens was determined as 310.
`CCN(CC)CCOc1ccc(-c2cnc(N3Cc4c(nc5ccccc5c4O)C3c3ccc4c(c3)CCO4)nc2)cc1` (stereo not drawn) had a Ki in data set [1] of 530 pM.
As to `COc1ccc(-c2cnc(N3Cc4c(nc5ccccc5c4O)C3c3ccc4c(c3)OCCO4)nc2)cc1` (stereo not drawn), in data set [1], the affinity corresponds to a Ki of 520 pM. The Ratio in the data set filed under Homo sapiens worked out at 3.07.
For the molecule `COc1ccc(-c2cnc(N3Cc4c(nc5ccccc5c4O)C3c3ccc4c(c3)CCC4)nc2)cc1OC` (stereo not drawn), the inhibition constant (Ki) in data set [1] turned out to be 1140 pM. The Ratio in the data set listed under Homo sapiens was 2.14.
`CCCc1nn(C)c2c(=O)[nH]c(-c3cc(S(=O)(=O)N4CCN(C)CC4)ccc3OCC)nc12`: the bioavailability in data set [2] worked out at 11%. Moreover, the 50% effect level in the data set with Canis familiaris [3] (ED50) was put at a dose of 5.1 µg/kg.
In data set [1], `COc1ccc(-c2cnc(N3CC(=O)c4c([nH]c5ccccc45)C3c3ccc4c(c3)OCO4)nc2)cc1OC` (stereo not drawn) came in with a Ki of 8860 pM. In data set [4], this molecule displayed a pKa of about 14.
As to `Oc1c2c(nc3ccccc13)C(c1ccc3c(c1)OCO3)N(c1ncccn1)C2` (stereo not drawn), in data set [1], the Ki stood at 1200 pM. For the same molecule, the Ratio in the data set filed under Homo sapiens worked out at 7.4.
For `COc1ccc(-c2cnc(N3Cc4c(nc5ccccc5c4O)C3c3ccc4c(c3)OCO4)nc2)cc1` (stereo not drawn) the same measures were 310 pM and 18.5.
Regarding `COc1ccc(-c2cnc(N3Cc4c(nc5ccccc5c4O)[C@H]3c3ccc4c(c3)CCO4)nc2)cc1`, the Ki in data set [1] turned out to be 230 pM. In addition, in the data set filed under Homo sapiens, the Ratio came out at 27. For the same molecule, the 50% effect level in the data set with Canis familiaris [5] (ED50) was put at a dose of 9.6 µg/kg.
In the case of `COc1ccc(-c2cnc(N3Cc4c(nc5ccccc5c4O)[C@H]3c3ccc4c(c3)OCO4)nc2)cc1OC`, the Ki in data set [1] is 210 pM. Besides, in the data set listed under Homo sapiens, the Ratio stood at 0.59. Further, in the data set with Canis familiaris [6], the 50% effective dose (ED50) was 22.4 µg/kg. Further, in data set [7], the pKa is 9.
Regarding `COc1ccc(-c2cnc(N3Cc4c(nc5ccccc5c4O)C3c3ccc(OC)c(OC)c3)nc2)cc1OC` (stereo not drawn), affinity in data set [1] was put at a Ki of 24700 pM.
On the same count and under the same terms, to `Oc1ccc(-c2cnc(N3Cc4c(nc5ccccc5c4O)C3c3ccc4c(c3)CCO4)nc2)cc1` (stereo not drawn) belongs 1750 pM.
Take `COc1ccc(-c2cnc(N3Cc4c(nc5ccccc5c4O)C3c3ccc4c(c3)CCO4)nc2)cc1` (stereo not drawn): the bioavailability in data set [2] came to 20%. The molecule also returned a Ki in data set [1] of 400 pM. The Ratio in the data set filed under Homo sapiens stood at 55.9.
In turn, `Oc1c2c(nc3ccccc13)C(c1ccc3c(c1)CCO3)N(c1ncc(-c3ccc(OCCN4CCOCC4)cc3)cn1)C2` (stereo not drawn) came in with a Ki in data set [1] of 290 pM.

A word on the Ki: it is a measure of affinity in units of concentration, obtained from inhibition or displacement. The term bioavailability denotes dose-corrected exposure relative to a reference, in per cent. A low value points to poor availability. Usually ED50 stands for the dose that gives a 50% effect, or the effect in half of the subjects. One may read the pKa as the negative logarithm of the acid dissociation constant.
